Molecules are shown by their SMILES. Read-outs that look alike come from different tables or passages of the source.

Results on 5 compounds are retold here after publication PMC12567268 (Pharmaceuticals, 2025).

For data set [1] the following is noted: cited from earlier work.
Data set [2] in a line: In vivo PK DDI study of TOF with or without RTV in rats (plasma LC-MS/MS, NCA). Details: species or system Sprague–Dawley rats. Conditions: for concentration at 12 h: oral, rat plasma, 12 h after TOF 10 mg/kg oral. The protocol:
The rats were randomly divided into three groups (eight rats per group) after 1 week of acclimatization. Each rat was pretreated with RTV by oral gavage at different doses for four consecutive days (from Day 1 to Day 4) to ensure steady-state CYP3A inhibition, based on studies indicating rapid onset of inhibition. Group 1 (control group) received the vehicle (normal saline). Groups 2 and 3 served as test groups and received 10 and 20 mg/kg RTV once daily (QD), respectively. […] The collected samples were centrifuged at 10,000 rpm for 10 min at 4 °C to separate the plasma and stored at −80 °C until analysis.
Plasma samples were prepared by protein precipitation with acetonitrile containing domperidone as an internal standard (100 ng/mL). After vortex mixing and centrifugation at 15,000× g for 10 min at 4 °C, the supernatant was analyzed by LC-MS/MS with an injection volume of 5 μL. Chromatographic separation was achieved on a C18 reversed-phase column with a mobile phase of 0.1% formic acid in water and acetonitrile at a flow rate of 0.4 mL/min. Mass spectrometry was performed in positive ion mode with an electrospray ionization probe. […] Detailed instrument settings, sample preparation, calibration, and validation data are provided in Supplementary Material (Tables S1 and S2; Figure S1).

For data set [3] the following is noted: rats; cited from earlier work.
For data set [4] the following is noted: healthy human subjects, cited from earlier work.
The conditions of data set [5]: humans; cited from earlier work.
For data set [6] the following is noted: cited from earlier work. The source holds these as a separate data set.
The subject of another data set is CYP3A4. The note with it: in vitro study; cited from earlier work.
For data set [7] the following is noted: healthy subjects, co-administration of RTV 400 mg twice daily; cited from earlier work.
Setting [8] is: Sprague-Dawley, rat, plasma, po, 10 mg/kg, rats, TOF 10 mg/kg oral, Control (TOF only, vehicle), median [interquartile range].
The mark [9] stands for this setting: rats, TOF 10 mg/kg oral, Control (TOF only, vehicle), median [interquartile range].
Setting [10] is: rats, TOF 10 mg/kg oral, RTV 10 mg/kg, median [interquartile range].

In the case of `C[C@@H]1CCN(C(=O)CC#N)C[C@@H]1N(C)c1ncnc2[nH]ccc12` [TOF, Tofacitinib], the “Increase in AUC of TOF” value in data set [1] (rats pretreated with fluconazole (inhibitor of CYP2C11)) was 39%; in data set [1] (rats pretreated with ketoconazole (inhibitor of CYP3A1/2)), 46%; in data set [1] (rats, with voriconazole (inhibits CYP3A1/2 and CYP2C11)), 166%; in data set [4] (co-administration of fluconazole), 79%; in data set [4] (co-administration of ketoconazole) it was 103%. Moreover, the concentration at 12 h came to 0.0015 µg/mL in data set [2] (Sprague-Dawley, rat, plasma, RTV 10 mg/kg, read-out: Lowest plasma concentration at 12 h); 0.0219 µg/mL in data set [2] (Sprague-Dawley, rat, plasma, RTV 10 mg/kg, read-out: Mean plasma concentration at 12 h); 0.0026 µg/mL in data set [2] (Sprague-Dawley, rat, plasma, RTV 20 mg/kg, read-out: Lowest plasma concentration at 12 h); 0.0121 µg/mL in data set [2] (Sprague-Dawley, rat, plasma, RTV 20 mg/kg, read-out: Mean plasma concentration at 12 h). In addition, the AUC(0-inf) – broadly, total exposure, with the tail of the curve extrapolated – was 2.72 µg·h/mL in data set [2] (setting [8]); 16 µg·h/mL in data set [2] (Sprague-Dawley, rat, plasma, po, 10 mg/kg, rats, TOF 10 mg/kg oral, RTV 20 mg/kg pretreatment and coadministration, median [interquartile range]). In addition, the half-life (commonly the time in which the quantity being followed falls by half) in data set [2] (setting [8]) is 1.21 h; in data set [2] (Sprague-Dawley, rat, plasma, po, 10 mg/kg, rats, TOF 10 mg/kg oral, RTV 10 mg/kg, median [interquartile range]), 1 h; in data set [2] (Sprague-Dawley, rat, plasma, po, 10 mg/kg, rats, TOF 10 mg/kg oral, RTV 20 mg/kg, median [interquartile range]), 0.87 h. The Cmax in data set [2] (Sprague-Dawley, rat, plasma, po, 10 mg/kg, rats, TOF 10 mg/kg oral, RTV 10 mg/kg, median [interquartile range], read-out: Cmax) was 2.25 µg/mL; in data set [2] (Sprague-Dawley, rat, plasma, po, 10 mg/kg, rats, TOF 10 mg/kg oral, RTV 20 mg/kg, median [interquartile range], read-out: Cmax), 3.9 µg/mL; in data set [2] (setting [9]), 1362 [1263–1410] ng/mL. Besides, the Tmax was 1 h in data set [2] (Sprague-Dawley, rat, plasma, po, 10 mg/kg, read-out: Tmax); 0.25 [0.25–0.5] h in data set [2] (setting [9]); 0.5 [0.44–1.0] h in data set [2] (setting [10]). In addition, the CL in data set [2] (setting [9]) is 3.57 [2.65–4.49] L/h/kg; in data set [2] (setting [10]), 1.65 [1.19–2.11] L/h/kg; in data set [2] (rats, TOF 10 mg/kg oral, RTV 20 mg/kg, median [interquartile range]) it was 0.66 [0.60- 0.73] L/h/kg. The “Change of half-life (t1/2) with RTV” value in data set [2] (rats, TOF 10 mg/kg oral, RTV 10 and 20 mg/kg vs Control, p = 0.08) is given as “remained unchanged”. Further, in data set [3], the “Bioavailability (BA)” value is given as 29.1%. In addition, in data set [5], the “Hepatic clearance as share of total clearance” value was 70%. Further, the “Renal clearance as share of total clearance” value in data set [5] was 30%.

`C=CC[C@@H]1/C=C(\C)C[C@H](C)C[C@H](OC)[C@H]2O[C@@](O)(C(=O)C(=O)N3CCCC[C@H]3C(=O)O[C@H](/C(C)=C/[C@@H]3CC[C@@H](O)[C@H](OC)C3)[C@H](C)[C@@H](O)CC1=O)[C@H](C)C[C@@H]2OC` [Tacrolimus]: the “Change in exposure on co-administration with RTV” value in data set [6] (patients undergoing long-term tacrolimus treatment) is “increase to toxic levels within 3 days”.

As for `CC(=O)N1CCN(c2ccc(OCC3COC(Cn4ccnc4)(c4ccc(Cl)cc4Cl)O3)cc2)CC1` (stereo not shown) [ketoconazole], in the data set on CYP3A4, the “Inhibition of the overall metabolism of TOF” value is given as “over 70%”.

As to `COc1ccc2c3c1O[C@H]1C(=O)CC[C@@]4(O)[C@@H](C2)N(C)CC[C@]314` [oxycodone], the “Change in exposure in the presence of RTV” value in data set [6] (in the presence of RTV) was “tripled”.

Turning to `C[C@@H](c1ncncc1F)[C@](O)(Cn1cncn1)c1ccc(F)cc1F` [voriconazole], in data set [7], the “Decrease in steady-state AUC” value is 82%.
